Experimental data reported in patent US10632132B2, “Methods for treating heart transplant rejection” (priority 2018, dated 2020).

Assays:
[1] = system: fully mismatched heterotopic heart allograft; assay: Fully mismatched heterotopic heart allograft survival in rats; type: in vivo, rat (Lewis 1W donor, Lewis 1A receptor); conditions: rat; SANA 100 mg/kg or 50 mg/kg by oral gavage daily from day −1 to day 15 post-transplantation; compared with control (vehicle) and precursor drug SA 100 mg/kg; FIG. 3
Description: (§1) While not wishing to be bound by theory, NLRP3 inflammasome activation is a mechanism that mediates the rejection of allotransplantation and in one embodiment of the described invention, it is a possible therapeutic target to treat allotransplantation of a heart. […] C57BL/6 mice were treated with SANA or salicylic acid (SA) (100 mg/kg, IP) or the vehicle (DMSO) for 1 hour. Then were injected with LPS (10 mg/kg, IP) or PBS for 2 hours, with subsequent peritoneal washes and blood extractions. Peritoneal wash and plasma were stored to measure IL-1β by ELISA. […] Rats were administrated with SANA or SA (100 mg/kg), SANA (50 mg/kg) or vehicle (Phosphate buffer) by oral gavage every day since day −1 until day 15 post-transplantation. Heart heterotopic transplantation was done by implantation of the donor heart (Lewis 1W rat) into the receptor abdomen (Lewis 1A rat). Rejection was diagnosed when the heart lost functionality (beats has stopped).

[2] = system: NF-κB and NLRP3 inflammasome-dependent IL-1β release; assay: LPS-induced IL-1β release in mice, measured by ELISA in plasma and peritoneal wash; type: in vivo; conditions: C57BL/6 mice, 100 mg/kg IP for 1 hour, then LPS 10 mg/kg IP for 2 hours
Description: as §1

O=C(O)c1cc(/C=C/[N+](=O)[O-])ccc1O [SANA, 2-hydroxy-5-(2-nitroethenyl)benzoic acid]
heart graft survival (rejection = heart beats stopped) [1]: prolonged the heart grafted survival | effect on NF-κB and NLRP3 inflammasome-dependent IL-1β release in the peritoneum ([2]; peritoneal wash, FIG. 2): inhibitory effect | effect on NF-κB and NLRP3 inflammasome-dependent IL-1β release in the plasma ([2]; plasma, FIG. 1): inhibitory effect
